In brackets after ≈: the same amount, converted by molar mass. Read-outs that look alike come from different tables or passages of the source.
What was measured:
[1] = Solubility of the active ingredients in liquid solutions (Liquids 1-5); assay type: physicochemical; conditions: for solubility: aqueous with cosolvent or surfactant or cyclodextrin
Procedure: Solutions were prepared essentially according to the procedure as described in Example 1. The solubility of each one of the active ingredients desogestrel, 3-β-hydroxydesogestrel, 3-keto desogestrel and ethinyl estradiol in these solutions was tested.

[2] = set-up: species or system human; conditions: in vivo
Procedure: Sixteen healthy female subjects were treated with 0.1 ml of the oral spray as described in Example 1 or with Marvelon® tablets (150 μg desogestrel, 30 μg ethinyl estradiol) in a cross over design. The spray was administered sublingually. Marvelon® was ingested. Serum concentration versus time profiles were obtained for etonogestrel and plasma concentration versus time profiles were obtained for ethinyl estradiol. FIGS. 2, 3, 4 and 5 show the average values of the serum/plasma concentrations versus time profiles.
This leads to the conclusion that a lower dose of either etonogestrel, or ethinyl estradiol, or both is possible for oral mucosal administration.

[3] = Cross-over pharmacokinetic study: sublingual oral spray (75 μg etonogestrel) versus ingested Cerazette tablet; assay type: in vivo, human; conditions: oral mucosal administration of etonogestrel; FIGS. 6 and 7
Procedure: Sixteen healthy female subjects were treated with 0.1 ml of oral spray comprising the liquid as depicted in table 6 to administer 75 μg etonogestrel, or with Cerazette® tablets (75 μg desogestrel) in a cross over design. The spray has been administered sublingually. Cerazette® has been ingested. Serum concentration versus time profiles were obtained for etonogestrel.
This leads to the conclusion that a lower dose of either etonogestrel is possible for oral mucosal administration to achieve a similar pharmacological effect.

[4] = exposure of etonogestrel after oral ingestion as its prodrug desogestrel; cited from earlier work
[5] = Liquid 1: water 25, ethanol 20, glycerol 25, propylene glycol 25, polysorbate 80 5 % v/v, read-out: Solubility in Liquid 1
[6] = Liquid 2: water 25, ethanol 25, glycerol 20, propylene glycol 25, polysorbate 80 5 % v/v, read-out: Solubility in Liquid 2
[7] = Liquid 3: water 25, ethanol 30, glycerol 15, propylene glycol 25, polysorbate 80 5 % v/v, read-out: Solubility in Liquid 3
[8] = Liquid 4: water 25, ethanol 25, glycerol 25, propylene glycol 25, polysorbate 80 0 % v/v, read-out: Solubility in Liquid 4
[9] = Liquid 5: water 30, ethanol 30, glycerol 25, propylene glycol 15, polysorbate 80 0 % v/v, read-out: Solubility in Liquid 5

Row | solubility [1, 5] [µg/mL] | solubility [1, 6] [µg/mL] | solubility [1, 7] [µg/mL] | solubility [1, 8] [µg/mL] | solubility [1, 9] [µg/mL] | levels of ethinyl estradiol (in plasma) compared to oral ingestion of equivalent amounts using a tablet [2] | levels of etonogestrel (in serum) compared to oral ingestion of equivalent amounts using a tablet [2] | levels of etonogestrel (in serum) compared to oral ingestion of an equivalent amount of desogestrel using a tablet [3] | Structure (SMILES) | Solubility in Liquid 1 [1] | Solubility in Liquid 2 [1] | Solubility in Liquid 3 [1] | Solubility in Liquid 4 [1] | Solubility in Liquid 5 [1] | oral bioavailability [4]
1 |  |  |  |  |  |  |  |  | C#C[C@]1(O)CC[C@H]2[C@@H]3CCC4=C[C@@H](O)CC[C@@H]4[C@H]3C(=C)C[C@@]21CC [3-β-Hydroxy-desogestrel] | ≧8.8 mg/mL | ≧7.0 mg/mL | ≧6.1 mg/mL | ≧6.9 mg/mL | ≧8.7 mg/mL | 
2 | 11300 (≈ 36.4 mM) | 12400 (≈ 39.9 mM) | 13400 (≈ 43.2 mM) | 2100 (≈ 6.76 mM) | 1500 (≈ 4.83 mM) |  |  |  | C#C[C@]1(O)CC[C@H]2[C@@H]3CCC4=CCCC[C@@H]4[C@H]3C(=C)C[C@@]21CC [Desogestrel] |  |  |  |  |  | 
3 | ≥ 10900 | ≥ 10800 | ≥ 14100 | 11200 (≈ 37.8 mM) | 12400 (≈ 41.8 mM) | much higher levels |  |  | C#C[C@]1(O)CC[C@H]2[C@@H]3CCc4cc(O)ccc4[C@H]3CC[C@@]21C [Ethinyl Estradiol] |  |  |  |  |  | 
4 | 5500 (≈ 17 mM) | 5800 (≈ 17.9 mM) | 7300 (≈ 22.5 mM) | 4200 (≈ 12.9 mM) | 3400 (≈ 10.5 mM) |  | much higher levels | much higher levels | C#C[C@]1(O)CC[C@H]2[C@@H]3CCC4=CC(=O)CC[C@@H]4[C@H]3C(=C)C[C@@]21CC [Etonogestrel, 13-ethyl-11methylene-17β-hydroxy-18,19-dinor-17α-pregnen-3-one] |  |  |  |  |  | about 80%
